Experimental data published in paper PMC7681098 (Theranostics, 2021).
Read-outs that look alike come from different tables or passages of the source.

How the values were obtained:
FLT4/VEGFR3 = biological target: T1, FLT4/VEGFR3 (Homo sapiens, UniProt P35916); assay: Kinase inhibition assay (Reaction Biology); assay type: biochemical
T1 construct: purchased Reaction Biology Corporation (PA, USA)

FLT3 [1] = biological target: T2, FLT3 (Homo sapiens, UniProt P36888); assay: Biolayer interferometry (BLI) binding assay; settings: ForteBio Octet, 0.3 nM to 1000 nM
T2 construct: The intracellular domain of FLT3 (residues 571-994) was cloned into pMal-c2X; MBP (N); made in house; host or cells: E. coli BL21
Experimental: The intracellular domain of FLT3 (residues 571-994) was cloned into pMal-c2X containing an N-terminal MBP-tag with a TEV protease cleavage site. The recombinant vector was transformed into E. coli. BL21. Expression and purification of recombinant FLT3 were performed as described previously [25]-[27].
(§1) All studies were performed with the Super Streptavidin (SSA) biosensors (CA, USA). All binding experiments were performed according to the manufacturer's instructions. For the cellular thermal shift assay (CETSA), experiments were performed as described previously.
(§2) A concentration range from 0.3 nM to 1000 nM was defined (Figure 1B). […] CETSA has been used to identify FLT3-LT-171-861 interactions in live cell settings. […] We first verified that the inhibitor could stabilize FLT3 against denaturation using Western blot. […] An obvious thermal shift of the melting curve was detected in the LT-171-861-treated sample (Figure 1C). […] Accordingly, we identified 53 °C as the optimal temperature for isothermal […] fingerprint (ITDRF) CETSA.
(A) Chemical structure of LT-171-861. […] Data were then fitted to obtain KD value. […] Data were first normalized by setting the highest and lowest value in each set to 100% and 0% respectively. […] Cell viability was evaluated by MTT assay respectively. The IC50 values were calculated using nonlinear regression.

JAK2 = biological target: T3, JAK2 (Homo sapiens, UniProt O60674); assay: Kinase inhibition assay (Reaction Biology); assay type: biochemical
T3 construct: purchased Reaction Biology Corporation (PA, USA)

FLT3 [2] = biological target: FLT3 (Homo sapiens, UniProt P36888); assay: FLT3 autophosphorylation by western blot in MV4-11 and MOLM13 cells; assay type: cell-based; settings: 2 h, read-out: IC50 of inhibition of FLT3 autophosphorylation
Experimental: Western blot analysis was performed as previously described. AML cell lines, BaF3 transformed cell lines and human primary cells were treated with the indicated concentration of FLT3 inhibitors for 2 h. To examine the phosphorylation levels of FLT3-Y591 (Cat. #3464s), p44/42-Thr202/Tyr204 (Cat. #4370), whole-cell lysates were subjected to immunoblotting with the corresponding primary antibodies from Cell Signaling Technology (MA, USA). Anti-STAT5 (Cat. #a7733), anti-STAT5-Y694 (Cat. #ap0070), anti-ERK1/2 (Cat. #a1013), anti-AKT (Cat. #a7270), anti-AKT-Ser473 (Cat. #ap0098), anti-Caspase 3 (Cat. #a11021), anti-PARP1 (Cat. #a0010), anti-Bcl2 (Cat. #a19693), anti-Mcl-1 (Cat. #a0434), anti-Pim2 (Cat. #a9230), anti-Caspase8 (Cat. #a19549) and anti-FLT3 (Cat. #a12437) were purchased from ABclonal Company (Wuhan, China).
(§3) (A) Chemical structure of LT-171-861. […] Data were then fitted to obtain KD value. […] Data were first normalized by setting the highest and lowest value in each set to 100% and 0% respectively. Data were obtained in the presence of the LT-171-861 (blue circle) as positive the control and DMSO (red square) as the negative control. All experiments were performed at three independent occasions and data are given as the mean ± SD. […] Cell viability was evaluated by MTT assay respectively. The IC50 values were calculated using nonlinear regression.
Target sequence in this assay (P36888 610-943 limits assumed): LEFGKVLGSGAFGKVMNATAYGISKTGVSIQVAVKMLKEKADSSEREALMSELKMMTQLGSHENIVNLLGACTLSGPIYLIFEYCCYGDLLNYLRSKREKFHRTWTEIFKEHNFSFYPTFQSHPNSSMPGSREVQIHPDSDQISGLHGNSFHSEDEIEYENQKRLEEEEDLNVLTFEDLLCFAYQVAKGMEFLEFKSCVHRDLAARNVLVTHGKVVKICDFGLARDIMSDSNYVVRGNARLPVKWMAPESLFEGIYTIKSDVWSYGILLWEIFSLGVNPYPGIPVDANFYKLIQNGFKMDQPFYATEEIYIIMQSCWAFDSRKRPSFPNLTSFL

FLT3 [3] = biological target: FLT3 (Homo sapiens, UniProt P36888); assay: Cellular thermal shift assay (CETSA / ITDRF CETSA) in MV4-11 cells; assay type: binding
Experimental: as §1, §2, §3
Target sequence in this assay (P36888 27-993, change not shown): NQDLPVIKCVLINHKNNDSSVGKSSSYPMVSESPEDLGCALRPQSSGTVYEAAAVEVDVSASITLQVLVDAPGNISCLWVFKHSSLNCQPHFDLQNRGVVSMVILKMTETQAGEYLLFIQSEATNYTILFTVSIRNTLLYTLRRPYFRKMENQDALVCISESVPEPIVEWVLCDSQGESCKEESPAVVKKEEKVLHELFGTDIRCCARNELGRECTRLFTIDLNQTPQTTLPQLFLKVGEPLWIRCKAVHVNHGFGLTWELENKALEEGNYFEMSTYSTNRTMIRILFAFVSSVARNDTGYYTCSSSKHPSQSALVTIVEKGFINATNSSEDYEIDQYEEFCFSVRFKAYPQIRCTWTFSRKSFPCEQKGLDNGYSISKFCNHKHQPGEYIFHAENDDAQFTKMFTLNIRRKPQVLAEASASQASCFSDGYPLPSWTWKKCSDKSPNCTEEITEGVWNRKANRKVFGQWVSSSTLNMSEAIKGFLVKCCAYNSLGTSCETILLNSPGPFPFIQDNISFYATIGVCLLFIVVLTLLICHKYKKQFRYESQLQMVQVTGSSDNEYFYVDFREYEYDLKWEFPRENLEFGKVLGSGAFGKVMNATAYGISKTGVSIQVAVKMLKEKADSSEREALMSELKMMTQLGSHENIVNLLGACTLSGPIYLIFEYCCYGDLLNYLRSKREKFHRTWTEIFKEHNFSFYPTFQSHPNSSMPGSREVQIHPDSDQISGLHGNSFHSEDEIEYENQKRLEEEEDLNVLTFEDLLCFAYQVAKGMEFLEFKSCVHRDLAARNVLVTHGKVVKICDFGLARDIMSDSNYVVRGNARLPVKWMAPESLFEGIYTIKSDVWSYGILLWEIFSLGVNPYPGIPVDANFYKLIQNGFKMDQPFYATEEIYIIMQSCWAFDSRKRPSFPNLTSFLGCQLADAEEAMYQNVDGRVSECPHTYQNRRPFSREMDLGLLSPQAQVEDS

[4] = test system: BaF3 cells transfected with FLT3-ITD-N676D and FLT3-ITD-F691L; assay: Subcutaneous xenograft with transfected BaF3 cells; assay type: in vivo, BALB/c nude mice; settings: 10 mg/kg every other day for 16 days
Experimental: (§4) Data were shown as mean±SD. […] Data were shown as mean±SD. (C) An engrafted tumor model was used to evaluate in vivo antitumor activity. The NOD/SCID mice were intravenously inoculated with MV4-11 cells. […] Log-rank testing was used to compare survival curves among treatment groups. […] (D) Apoptotic assays in engraft model were evaluated by TUNEL assay and cell proliferative activity was measured by Ki67 assay. Images were acquired at ×40 magnification. (E) BALB/c nude mice were subcutaneously inoculated with MV4-11 cells (5×10^6) and bodyweight of each mouse was recorded every other day. (F) Representative photo of tumors from BALB/c nude mice which were inoculated with MV4-11 cells. (G) BALB/c nude mice were subcutaneously inoculated with BaF3 cells bearing FLT3-ITD-N676D (n=6) and FLT3-ITD-F691L (n=6) respectively. […] (H) BALB/c mice were intravenously inoculated with cells used in (G). […] Log-rank testing was used to compare survival curves among treatment groups. […] (I) Representative photos of spleens dissected from mice in (H) inoculated with BaF3 cells bearing FLT-3-ITD-F691L.
Cells were injected into the tail vein of BALB/c nude mice and allowed to engraft for 5 days. […] This schedule was repeated for 8 cycles.

c-Kit = biological target: T4, c-Kit (Homo sapiens, UniProt P10721); assay: Kinase inhibition assay (Reaction Biology); assay type: biochemical
T4 construct: purchased Reaction Biology Corporation (PA, USA)

MV4-11 cells = assay: Bone marrow engrafted model, survival; assay type: in vivo, NOD-SCID mice; settings: MV4-11 bone marrow engraftment; LT-171-861 10 mg/kg every other day, sorafenib orally every day
Experimental: Six-week-old female NOD-SCID mice were treated with sub-lethal dose radiation (1.8 Gy) before intravenous injection of MV4-11 cells (5×10^6) or MOLM13 cells (5×10^6).
as §4
Mice that received vehicle treatment died within 30 days after intravenous injection of MV4-11 cells.

JAK1 = biological target: T5, JAK1 (Homo sapiens, UniProt P23458); assay: Kinase inhibition assay (Reaction Biology); assay type: biochemical
T5 construct: purchased Reaction Biology Corporation (PA, USA)

FMS = biological target: T6, FMS (Homo sapiens, UniProt P07333); assay: Kinase inhibition assay (Reaction Biology); assay type: biochemical
T6 construct: purchased Reaction Biology Corporation (PA, USA)

FLT1/VEGFR1 = biological target: T7, FLT1/VEGFR1 (Homo sapiens, UniProt P17948); assay: Kinase inhibition assay (Reaction Biology); assay type: biochemical
T7 construct: purchased Reaction Biology Corporation (PA, USA)

FLT3 [5] = biological target: T8, FLT3 (Homo sapiens, UniProt P36888); assay: Kinase inhibition assay (Reaction Biology); assay type: biochemical
T8 construct: purchased Reaction Biology Corporation (PA, USA)
T8 sequence (P36888 27-993): as the sequence (P36888 27-993, change not shown) above

JAK3 = biological target: T9, JAK3 (Homo sapiens, UniProt P52333); assay: Kinase inhibition assay (Reaction Biology); assay type: biochemical
T9 construct: purchased Reaction Biology Corporation (PA, USA)

ERK2/MAPK1 = biological target: T10, ERK2/MAPK1 (Homo sapiens, UniProt P28482); assay: Kinase inhibition assay (Reaction Biology); assay type: biochemical
T10 construct: purchased Reaction Biology Corporation (PA, USA)
T10 sequence (P28482 whole entry): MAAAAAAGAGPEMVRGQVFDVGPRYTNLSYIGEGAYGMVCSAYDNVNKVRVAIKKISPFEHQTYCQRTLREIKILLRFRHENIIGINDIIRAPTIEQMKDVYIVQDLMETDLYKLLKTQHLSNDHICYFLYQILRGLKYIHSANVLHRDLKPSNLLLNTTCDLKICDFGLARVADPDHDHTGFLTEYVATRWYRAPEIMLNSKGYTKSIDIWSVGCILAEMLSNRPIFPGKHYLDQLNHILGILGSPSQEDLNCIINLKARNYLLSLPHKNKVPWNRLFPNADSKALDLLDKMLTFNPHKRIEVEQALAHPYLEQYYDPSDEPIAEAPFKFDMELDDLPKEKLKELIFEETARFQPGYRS

T6 sequence (P07333 20-972): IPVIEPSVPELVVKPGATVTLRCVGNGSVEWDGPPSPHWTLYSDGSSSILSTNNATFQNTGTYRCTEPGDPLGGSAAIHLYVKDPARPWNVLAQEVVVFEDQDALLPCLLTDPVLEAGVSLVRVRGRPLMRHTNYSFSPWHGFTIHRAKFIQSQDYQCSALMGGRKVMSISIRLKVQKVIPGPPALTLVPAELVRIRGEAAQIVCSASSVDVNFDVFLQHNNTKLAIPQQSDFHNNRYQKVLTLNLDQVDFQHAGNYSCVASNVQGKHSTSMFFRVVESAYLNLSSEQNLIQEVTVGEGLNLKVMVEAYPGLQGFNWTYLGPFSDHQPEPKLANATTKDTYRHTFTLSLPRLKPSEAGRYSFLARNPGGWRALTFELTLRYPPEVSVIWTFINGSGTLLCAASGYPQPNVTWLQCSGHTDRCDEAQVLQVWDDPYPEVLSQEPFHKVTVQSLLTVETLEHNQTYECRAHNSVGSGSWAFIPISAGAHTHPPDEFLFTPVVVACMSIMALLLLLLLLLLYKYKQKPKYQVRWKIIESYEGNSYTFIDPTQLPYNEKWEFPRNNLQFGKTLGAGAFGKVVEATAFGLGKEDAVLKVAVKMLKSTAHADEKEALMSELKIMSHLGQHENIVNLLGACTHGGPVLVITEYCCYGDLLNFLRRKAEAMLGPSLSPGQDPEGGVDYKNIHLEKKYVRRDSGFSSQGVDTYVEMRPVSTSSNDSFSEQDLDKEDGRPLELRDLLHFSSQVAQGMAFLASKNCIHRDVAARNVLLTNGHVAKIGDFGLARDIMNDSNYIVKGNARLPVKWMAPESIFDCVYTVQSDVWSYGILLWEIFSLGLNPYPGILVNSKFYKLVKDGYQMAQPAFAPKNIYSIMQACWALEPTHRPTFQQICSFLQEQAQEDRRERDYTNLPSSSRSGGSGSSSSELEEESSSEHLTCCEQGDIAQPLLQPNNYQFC
T4 sequence (P10721 26-976): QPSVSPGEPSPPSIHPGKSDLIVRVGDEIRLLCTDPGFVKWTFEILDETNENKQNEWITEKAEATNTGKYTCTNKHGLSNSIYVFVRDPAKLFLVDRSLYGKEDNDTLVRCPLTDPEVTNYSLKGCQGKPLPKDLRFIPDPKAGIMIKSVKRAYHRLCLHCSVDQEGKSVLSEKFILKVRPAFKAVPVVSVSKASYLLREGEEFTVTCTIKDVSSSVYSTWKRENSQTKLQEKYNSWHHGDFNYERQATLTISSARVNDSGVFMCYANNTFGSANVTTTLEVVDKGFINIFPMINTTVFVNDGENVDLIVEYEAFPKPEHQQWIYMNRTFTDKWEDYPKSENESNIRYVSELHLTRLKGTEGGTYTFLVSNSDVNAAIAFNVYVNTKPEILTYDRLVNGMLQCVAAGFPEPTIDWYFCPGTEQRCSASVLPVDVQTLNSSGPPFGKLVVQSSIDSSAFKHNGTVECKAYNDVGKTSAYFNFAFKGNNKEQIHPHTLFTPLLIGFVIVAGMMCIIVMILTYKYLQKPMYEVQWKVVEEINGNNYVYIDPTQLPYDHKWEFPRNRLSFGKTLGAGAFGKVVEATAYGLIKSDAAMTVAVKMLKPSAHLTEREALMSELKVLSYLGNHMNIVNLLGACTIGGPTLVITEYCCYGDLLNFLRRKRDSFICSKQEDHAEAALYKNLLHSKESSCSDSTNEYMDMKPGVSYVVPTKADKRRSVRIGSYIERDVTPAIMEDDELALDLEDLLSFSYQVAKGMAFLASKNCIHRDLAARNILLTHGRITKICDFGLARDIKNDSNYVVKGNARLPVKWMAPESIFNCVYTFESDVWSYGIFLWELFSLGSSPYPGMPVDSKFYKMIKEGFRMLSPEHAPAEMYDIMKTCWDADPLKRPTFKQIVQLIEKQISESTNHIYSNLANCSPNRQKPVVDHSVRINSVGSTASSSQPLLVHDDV
T7 sequence (P17948 27-1338): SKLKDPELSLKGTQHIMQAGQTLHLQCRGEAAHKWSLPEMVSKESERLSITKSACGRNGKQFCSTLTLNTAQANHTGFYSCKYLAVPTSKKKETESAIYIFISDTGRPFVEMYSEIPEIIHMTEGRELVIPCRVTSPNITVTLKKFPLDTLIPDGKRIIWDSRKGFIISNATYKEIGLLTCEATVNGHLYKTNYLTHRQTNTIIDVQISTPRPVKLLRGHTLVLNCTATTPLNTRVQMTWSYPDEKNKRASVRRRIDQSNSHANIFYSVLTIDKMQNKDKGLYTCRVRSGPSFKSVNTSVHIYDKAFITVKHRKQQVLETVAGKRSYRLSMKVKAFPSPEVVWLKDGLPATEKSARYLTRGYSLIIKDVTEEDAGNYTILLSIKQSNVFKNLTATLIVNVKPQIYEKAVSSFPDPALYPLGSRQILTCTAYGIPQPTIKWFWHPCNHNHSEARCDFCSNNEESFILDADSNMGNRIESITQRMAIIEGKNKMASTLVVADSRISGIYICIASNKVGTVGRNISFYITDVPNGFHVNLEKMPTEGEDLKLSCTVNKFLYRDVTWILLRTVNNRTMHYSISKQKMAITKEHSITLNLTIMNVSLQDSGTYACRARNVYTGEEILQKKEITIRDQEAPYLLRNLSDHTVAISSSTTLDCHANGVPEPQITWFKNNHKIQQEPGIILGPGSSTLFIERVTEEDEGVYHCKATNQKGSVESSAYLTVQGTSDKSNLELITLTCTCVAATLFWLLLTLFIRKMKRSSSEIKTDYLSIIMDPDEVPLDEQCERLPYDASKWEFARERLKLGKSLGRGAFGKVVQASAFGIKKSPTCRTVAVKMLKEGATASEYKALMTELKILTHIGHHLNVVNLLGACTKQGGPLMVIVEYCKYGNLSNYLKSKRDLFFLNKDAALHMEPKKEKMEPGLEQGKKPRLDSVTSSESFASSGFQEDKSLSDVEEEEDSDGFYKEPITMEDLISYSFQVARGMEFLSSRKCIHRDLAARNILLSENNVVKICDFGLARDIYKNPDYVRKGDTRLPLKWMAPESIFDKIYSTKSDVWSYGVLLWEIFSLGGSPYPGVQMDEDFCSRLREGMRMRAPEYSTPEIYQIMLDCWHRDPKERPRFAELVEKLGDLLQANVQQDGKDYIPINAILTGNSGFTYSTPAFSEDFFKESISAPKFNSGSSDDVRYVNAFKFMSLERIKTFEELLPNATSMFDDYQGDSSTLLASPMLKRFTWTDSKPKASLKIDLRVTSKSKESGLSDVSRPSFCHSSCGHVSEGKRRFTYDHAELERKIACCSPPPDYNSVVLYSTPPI

CN1CCN(Cc2ccc(NC(=O)c3n[nH]cc3Nc3ncnc4[nH]ccc34)cc2)CC1 [LT-171-861]
IC50 (FLT4/VEGFR3): 1.24 nM
Kd (FLT3 [1]): 3.31 nM
IC50 (JAK2): 33.8 nM
IC50 (FLT3 [2]): ≤ 40 nM
Kd (FLT3 [3]; 1 h, 53 °C, read-out: fitted Kd value (ITDRF CETSA)): 78.5 nM
apparent aggregation temperature (Tagg) for FLT3 (FLT3 [3]; LT-171-861 10 µM 1 h, 49.11 °C without LT-171-861): 52.91 °C
tumor growth [4]: inhibited tumor growth
IC50 (c-Kit): > 200 nM
IC50 (c-Kit; 10 μM ATP, 10-dose IC50 mode): 1810 nM
survival versus vehicle (MV4-11 cells): increased survival rates
IC50 (JAK1): 55 nM
IC50 (FMS): > 200 nM
IC50 (FMS; 10 μM ATP, 10-dose IC50 mode): 247 nM
IC50 (FLT1/VEGFR1): 5.6 nM
IC50 (FLT3 [5]): < 1 nM
IC50 (FLT3 [5]; 10 μM ATP, 10-dose IC50 mode): 0.234 nM
IC50 (JAK3): 32.6 nM
IC50 (ERK2/MAPK1; 10 μM ATP, 10-dose IC50 mode, read-out: IC50 ERK2/MAPK1): 798 nM
IC50 (ERK2/MAPK1; read-out: IC50 ERK2): > 200 nM
